Molecular target: T1, B1R receptor of the rat (CHO K1 cells stably transfected with the B1R gene of the rat) (Rattus norvegicus, UniProt P97583)
T1 construct: expressed in transfected cells; host or cells: CHO K1 cells (Chinese hamster ovary), stably transfected
T1 sequence (P97583 1-337): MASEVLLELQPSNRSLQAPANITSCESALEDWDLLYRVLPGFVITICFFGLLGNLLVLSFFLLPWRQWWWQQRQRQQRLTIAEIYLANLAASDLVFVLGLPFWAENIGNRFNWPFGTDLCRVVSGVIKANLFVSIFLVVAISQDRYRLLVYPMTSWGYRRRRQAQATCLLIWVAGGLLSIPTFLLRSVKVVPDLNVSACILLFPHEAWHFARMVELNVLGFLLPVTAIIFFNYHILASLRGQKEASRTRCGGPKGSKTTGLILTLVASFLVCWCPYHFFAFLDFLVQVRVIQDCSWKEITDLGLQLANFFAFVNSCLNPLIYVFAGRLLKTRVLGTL
Test: Functional study on the bradykinin receptor 1 (B1R), Ca2+ fluorescence (Fluo-4) FLIPR/Novostar assay, rB1R cells
Format: cell-based
Conditions: CHO-K1, 10 μM, library compounds CC_H, read-out: % Inhibition (r-B1R) at 10 μM
Procedure, shortened: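 Stably transfected CHO K1 cells carrying human or rat B1R were Fluo-4 loaded and Ca2+ fluorescence read by FLIPR or Novostar. Compounds were added first at 10 μM for % activation, then the EC80 agonist was applied after 6-20 min (human: Lys-Des-Arg9-bradykinin; rat: Des-Arg9-bradykinin). % inhibition is relative to maximum achievable inhibition, and IC50 comes from concentration series.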

inhibition at 10 µM | SMILES
91% | CN(C(=O)c1ccc2c(c1)C(NC(=O)c1cccnc1C(F)(F)F)CC2)C1CCN(c2ccnc(S(C)(=O)=O)n2)CC1 (stereo not drawn) [CC_H-600, N-[6-[Methyl-[1-(2-methylsulfonyl-pyrimidin-4-yl)-piperidin-4-yl]-carbamoyl]-2,3-dihydro-1H-inden-1-yl]-2-(trifluoromethyl)-pyridine-3-carboxylic acid amide]
74% | CN(C)C(=O)c1cc(N2CCC(N(C)C(=O)c3ccc4c(c3)C(NC(=O)c3cccnc3C(F)(F)F)CC4)CC2)ccn1 (stereo not drawn) [CC_H-601, N-[6-[[1-[2-(Dimethyl-carbamoyl)-pyridin-4-yl]-piperidin-4-yl]-methyl-carbamoyl]-2,3-dihydro-1H-inden-1-yl]-2-(trifluoromethyl)-pyridine-3-carboxylic acid amide]
102% | CN(C(=O)c1ccc2c(c1)C(NC(=O)c1cccnc1C(F)(F)F)CC2)C1CCN(c2ccnc(N3CCCC3)n2)CC1 (stereo not drawn) [CC_H-603, N-[6-[Methyl-[1-(2-pyrrolidin-1-yl-pyrimidin-4-yl)-piperidin-4-yl]-carbamoyl]-2,3-dihydro-1H-inden-1-yl]-2-(trifluoromethyl)-pyridine-3-carboxylic acid amide]
102% | Cc1cc(N2CCC(N(C)C(=O)c3ccc4c(c3)C(NC(=O)c3cccnc3C(F)(F)F)CC4)CC2)nc(N(C)C)n1 (stereo not drawn) [CC_H-604, N-[6-[[1-(2-Dimethylamino-6-methyl-pyrimidin-4-yl)-piperidin-4-yl]-methyl-carbamoyl]-2,3-dihydro-1H-inden-1-yl]-2-(trifluoromethyl)-pyridine-3-carboxylic acid amide]
99% | CN(C(=O)c1ccc2c(c1)C(NC(=O)c1cccnc1C(F)(F)F)CC2)C1CCN(c2ccnc(C(C)(C)C)n2)CC1 (stereo not drawn) [CC_H-606, N-[6-[[1-(2-tert-Butyl-pyrimidin-4-yl)-piperidin-4-yl]-methyl-carbamoyl]-2,3-dihydro-1H-inden-1-yl]-2-(trifluoromethyl)-pyridine-3-carboxylic acid amide]
96% | Cc1ncc2n1C(=O)N(C1CCC(N(C)C(=O)c3ccc4c(c3)C(NC(=O)c3cccnc3C(F)(F)F)CC4)CC1)C2 (stereo not drawn) [CC_H-607, N-[6-[Methyl-[4-(5-methyl-3-oxo-1,2-dihydro-imidazo[5,1-e]imidazol-2-yl)-cyclohexyl]-carbamoyl]-2,3-dihydro-1H-inden-1-yl]-2-(trifluoromethyl)-pyridine-3-carboxylic acid amide]
102% | CN(C)c1nccc(N2CCC(N(C)C(=O)c3ccc4c(c3)C(NC(=O)c3cccnc3C(F)(F)F)CC4)CC2)n1 (stereo not drawn) [CC_H-608, N-[6-[[1-(2-Dimethylamino-pyrimidin-4-yl)-piperidin-4-yl]-methyl-carbamoyl]-2,3-dihydro-1H-inden-1-yl]-2-(trifluoromethyl)-pyridine-3-carboxylic acid amide]
102% | CN(C(=O)c1ccc2c(c1)C(NC(=O)c1ccccc1Cl)CC2)C1CCN(c2ccnc(S(C)(=O)=O)n2)CC1 (stereo not drawn) [CC_H-609, 3-[(2-Chloro-benzoyl)amino]-N-methyl-N-[1-(2-methylsulfonyl-pyrimidin-4-yl)-piperidin-4-yl]-2,3-dihydro-1H-indene-5-carboxylic acid amide]
101% | CN(C(=O)c1ccc2c(c1)C(NC(=O)c1cccnc1C(F)(F)F)CC2)C1CCN(c2ccnc(C3CC3)n2)CC1 (stereo not drawn) [CC_H-610, N-[6-[[1-(2-Cyclopropyl-pyrimidin-4-yl)-piperidin-4-yl]-methyl-carbamoyl]-2,3-dihydro-1H-inden-1-yl]-2-(trifluoromethyl)-pyridine-3-carboxylic acid amide]
101% | CN(C(=O)c1ccc2c(c1)C(NC(=O)c1ccccc1Cl)CC2)C1CCN(c2ccnc(N3CCCC3)n2)CC1 (stereo not drawn) [CC_H-612, 3-[(2-Chloro-benzoyl)amino]-N-methyl-N-[1-(2-pyrrolidin-1-yl-pyrimidin-4-yl)-piperidin-4-yl]-2,3-dihydro-1H-indene-5-carboxylic acid amide]
90% | CN(C(=O)c1ccc2c(c1)C(NC(=O)CCC1CCCC1)CC2)C1CCN(c2ccnc(S(C)(=O)=O)n2)CC1 (stereo not drawn) [CC_H-613, 3-(3-Cyclopentyl-propanoylamino)-N-methyl-N-[1-(2-methylsulfonyl-pyrimidin-4-yl)-piperidin-4-yl]-2,3-dihydro-1H-indene-5-carboxylic acid amide]
101% | Cc1cc(N2CCC(N(C)C(=O)c3ccc4c(c3)C(NC(=O)c3ccccc3Cl)CC4)CC2)nc(N(C)C)n1 (stereo not drawn) [CC_H-614, 3-[(2-Chloro-benzoyl)amino]-N-[1-(2-dimethylamino-6-methyl-pyrimidin-4-yl)-piperidin-4-yl]-N-methyl-2,3-dihydro-1H-indene-5-carboxylic acid amide]
65% | CN(C)C(=O)c1cc(N2CCC(N(C)C(=O)c3ccc4c(c3)C(NC(=O)CCC3CCCC3)CC4)CC2)ccn1 (stereo not drawn) [CC_H-615, 4-[4-[[3-(3-Cyclopentyl-propanoylamino)-2,3-dihydro-1H-inden-5-carbonyl]-methyl-amino]-piperidin-1-yl]-N,N-dimethyl-pyridine-2-carboxylic acid amide]
101% | CN(C(=O)c1ccc2c(c1)C(NC(=O)c1ccccc1Cl)CC2)C1CCN(c2ccnc(C(C)(C)C)n2)CC1 (stereo not drawn) [CC_H-616, N-[1-(2-tert-Butyl-pyrimidin-4-yl)-piperidin-4-yl]-3-[(2-chloro-benzoyl)amino]-N-methyl-2,3-dihydro-1H-indene-5-carboxylic acid amide]
84% | Cc1ncc2n1C(=O)N(C1CCC(N(C)C(=O)c3ccc4c(c3)C(NC(=O)c3ccccc3Cl)CC4)CC1)C2 (stereo not drawn) [CC_H-618, 3-[(2-Chloro-benzoyl)amino]-N-methyl-N-[4-(5-methyl-3-oxo-1,2-dihydro-imidazo[5,1-e]imidazol-2-yl)-cyclohexyl]-2,3-dihydro-1H-indene-5-carboxylic acid amide]
102% | CN(C(=O)c1ccc2c(c1)C(NC(=O)CCC1CCCC1)CC2)C1CCN(c2ccnc(N3CCCC3)n2)CC1 (stereo not drawn) [CC_H-620, 3-(3-Cyclopentyl-propanoylamino)-N-methyl-N-[1-(2-pyrrolidin-1-yl-pyrimidin-4-yl)-piperidin-4-yl]-2,3-dihydro-1H-indene-5-carboxylic acid amide]
98% | CN(C(=O)c1ccc2c(c1)C(NC(=O)c1cccnc1C(F)(F)F)CC2)C1CCN(c2ncncc2F)CC1 (stereo not drawn) [CC_H-621, N-[6-[[1-(5-Fluoro-pyrimidin-4-yl)-piperidin-4-yl]-methyl-carbamoyl]-2,3-dihydro-1H-inden-1-yl]-2-(trifluoromethyl)-pyridine-3-carboxylic acid amide]
100% | Cc1cc(N2CCC(N(C)C(=O)c3ccc4c(c3)C(NC(=O)CCC3CCCC3)CC4)CC2)nc(N(C)C)n1 (stereo not drawn) [CC_H-622, 3-(3-Cyclopentyl-propanoylamino)-N-[1-(2-dimethylamino-6-methyl-pyrimidin-4-yl)-piperidin-4-yl]-N-methyl-2,3-dihydro-1H-indene-5-carboxylic acid amide]
101% | CN(C)c1nccc(N2CCC(N(C)C(=O)c3ccc4c(c3)C(NC(=O)c3ccccc3Cl)CC4)CC2)n1 (stereo not drawn) [CC_H-623, 3-[(2-Chloro-benzoyl)amino]-N-[1-(2-dimethylamino-pyrimidin-4-yl)-piperidin-4-yl]-N-methyl-2,3-dihydro-1H-indene-5-carboxylic acid amide]

Same assay, conditions: CHO-K1, 10 μM, read-out: % Inhibition (r-B1R) at 10 μM

inhibition at 10 µM | SMILES
110% | CC(C)CC(=O)NC1CCc2ccc(C(=O)N(C)C3CCN(c4ccc5cnccc5c4)CC3)cc21 (stereo not drawn) [CC_H-379, N-(1-Isoquinolin-6-yl-piperidin-4-yl)-N-methyl-3-(3-methyl-butanoylamino)-2,3-dihydro-1H-indene-5-carboxylic acid amide]
103% | CCCC(=O)NC1CCc2ccc(C(=O)N(C)C3CCN(c4ccc5cnccc5c4)CC3)cc21 (stereo not drawn) [CC_H-380, 3-(Butanoylamino)-N-(1-isoquinolin-6-yl-piperidin-4-yl)-N-methyl-2,3-dihydro-1H-indene-5-carboxylic acid amide]
109% | CN(C(=O)c1ccc2c(c1)C(NC(=O)CCC1CCCC1)CC2)C1CCN(c2ccc3cnccc3c2)CC1 (stereo not drawn) [CC_H-381, 3-(3-Cyclopentyl-propanoylamino)-N-(1-isoquinolin-6-yl-piperidin-4-yl)-N-methyl-2,3-dihydro-1H-indene-5-carboxylic acid amide]
50% | CN(C(=O)c1ccc2c(c1)C(NS(=O)(=O)Cc1cccc(C(F)(F)F)c1)CC2)C1CCN(c2ccc3cnccc3c2)CC1 (stereo not drawn) [CC_H-383, N-(1-Isoquinolin-6-yl-piperidin-4-yl)-N-methyl-3-[[[3-(trifluoromethyl)phenyl]-methylsulfonyl]amino]-2,3-dihydro-1H-indene-5-carboxylic acid amide]
109% | CN(C(=O)c1ccc2c(c1)C(NS(=O)(=O)Cc1ccccc1F)CC2)C1CCN(c2ccc3cnccc3c2)CC1 (stereo not drawn) [CC_H-384, 3-[[(2-Fluorophenyl)-methylsulfonyl]amino]-N-(1-isoquinolin-6-yl-piperidin-4-yl)-N-methyl-2,3-dihydro-1H-indene-5-carboxylic acid amide]

From patent US8680159B2, “Bradykinin 1 receptor modulating compounds” (Gruenenthal GmbH, priority 2010, dated 2014)
